# Laboratory results as given in the supplement of paper PMC10307832.
# Experiments:
# Test in all cases: relative viability (nuclei count vs DMSO), 5 days (fraction); higher = more cells survive
# [1] = compound: CN(c1ncccc1CNc1nc(Nc2ccc3c(c2)CC(=O)N3)ncc1C(F)(F)F)S(C)(=O)=O + CC(C)C[C@H](NC(=O)[C@H](Cc1ccccc1)NC(=O)c1cnccn1)B(O)O [Bortezomib] (partner 0.002 µM)
# Procedure, shortened: (§1)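 Lung cancer cell lines were seeded in 1536-well plates and dosed by pin tool the next day, with either a single drug or a fixed anchor-drug dose combined with five library-drug doses (not always all listed) spaced in √10 steps. Five days later, one step fixed the cells and stained their nuclei (final 0.05% Triton X-100, 1% formaldehyde, 1 ug/ml Hoechst), and nuclei were counted on 4× images. Relative viability is the nuclei count in treated wells divided by the count in vehicle wells, and each value is the median of duplicate plates.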
# [2] = compound: CN(c1ncccc1CNc1nc(Nc2ccc3c(c2)CC(=O)N3)ncc1C(F)(F)F)S(C)(=O)=O + Cc1cc(Nc2cc(N3CCN(C)CC3)nc(Sc3ccc(NC(=O)C4CC4)cc3)n2)n[nH]1 [Tozasertib] (partner 0.1 µM)
# Procedure, shortened: as §1
# [3] = compound: CN(c1ncccc1CNc1nc(Nc2ccc3c(c2)CC(=O)N3)ncc1C(F)(F)F)S(C)(=O)=O + NC(=O)Nc1cc(-c2cccc(F)c2)sc1C(=O)N[C@H]1CCCNC1 [AZD7762] (partner 0.2 µM)
# Procedure, shortened: as §1
# [4] = compound: CN(c1ncccc1CNc1nc(Nc2ccc3c(c2)CC(=O)N3)ncc1C(F)(F)F)S(C)(=O)=O + Nc1ncn([C@H]2C[C@H](O)[C@@H](CO)O2)c(=O)n1 [Decitabine] (partner 2 µM)
# Procedure, shortened: as §1
Cell Line,relative viability ([1]; first compound 0.01 µM),relative viability ([1]; first compound 0.03162 µM),relative viability ([1]; first compound 0.1 µM),relative viability ([1]; first compound 0.3162 µM),relative viability ([1]; first compound 1 µM),relative viability ([2]; first compound 0.01 µM),relative viability ([2]; first compound 0.03162 µM),relative viability ([2]; first compound 0.1 µM),relative viability ([2]; first compound 0.3162 µM),relative viability ([2]; first compound 1 µM),relative viability ([3]; first compound 0.01 µM),relative viability ([3]; first compound 0.03162 µM),relative viability ([3]; first compound 0.1 µM),relative viability ([3]; first compound 0.3162 µM),relative viability ([3]; first compound 1 µM),relative viability ([4]; first compound 0.01 µM),relative viability ([4]; first compound 0.03162 µM),relative viability ([4]; first compound 0.1 µM),relative viability ([4]; first compound 0.3162 µM),relative viability ([4]; first compound 1 µM)
HOP-62,0.839,0.673,0.939,0.803,0.911,0.408,0.42,0.391,0.318,0.262,0.742,0.776,0.531,0.75,0.628,0.208,0.212,0.256,0.211,0.245
LU99A,1.15,1.26,1.09,1.43,1.22,0.319,0.301,0.297,0.258,0.246,0.377,0.507,0.509,0.572,0.476,0.959,0.996,0.907,0.874,0.913
NCI-H647,0.934,1.52,1.04,0.931,0.886,0.315,0.224,0.498,0.353,0.248,0.383,0.515,0.611,0.566,0.471,0.425,0.51,0.498,0.544,0.502
A-427,1.09,1.01,0.998,0.942,0.965,0.223,0.191,0.207,0.186,0.211,0.798,0.81,0.874,1.14,0.907,0.549,0.568,0.588,0.664,0.61
NCI-H441,0.68,0.859,0.36,0.542,0.377,0.697,0.628,0.581,0.583,0.512,1.07,1.11,1.04,1.18,1.22,0.3,0.25,0.264,0.261,0.224
NCI-H2126,1.12,1.1,1.04,1.1,1.1,0.793,0.91,0.85,0.787,0.714,1.03,1.08,0.961,0.904,0.902,0.623,0.615,0.564,0.557,0.53
HCC-44,0.963,0.931,0.913,0.829,0.824,1.02,0.926,0.94,,0.804,0.948,1.02,0.969,0.967,0.964,0.871,0.956,0.898,0.977,0.996
NCI-H460,1.18,1.39,1.13,1.07,1.13,0.499,0.464,0.491,0.137,0.396,0.714,0.824,0.643,0.661,0.684,0.477,0.702,0.537,0.493,0.549
NCI-H322M,1.26,1.41,,1.38,1.44,0.505,0.504,0.491,0.504,0.472,0.584,0.556,0.62,0.663,0.813,0.697,0.802,0.775,0.681,0.714
EKVX,1.02,1.19,1.11,0.923,0.83,0.456,0.428,0.454,0.339,0.316,0.723,0.676,0.747,0.838,0.748,0.372,0.327,0.301,0.342,0.335
NCI-H1734,1.06,1.1,0.996,0.857,0.949,0.239,0.273,0.27,0.269,0.258,0.55,0.659,0.667,0.782,0.742,0.473,0.535,0.571,0.524,0.55
ABC-1,0.308,0.273,0.396,0.376,0.329,0.173,0.161,0.158,0.137,0.172,0.838,0.86,0.825,0.803,1.08,1.01,1.17,0.949,0.944,1.09
EPLC-272H,0.972,0.774,0.854,0.944,0.758,0.346,0.234,0.314,0.278,0.182,0.273,0.174,0.211,0.331,0.291,0.367,0.339,0.357,0.397,0.336
NCI-H1993,0.993,1.22,1.11,1.04,0.907,0.528,0.615,0.659,0.595,0.551,0.852,0.837,0.836,0.634,0.737,0.624,0.609,0.56,0.574,0.605
NCI-H596,0.793,0.973,0.93,1.1,1.28,0.886,0.938,0.899,0.813,0.632,0.999,1.1,0.948,1.05,1.05,1.15,1.01,1.11,1.03,1.13
